Measurements from patent publication US7628979B1, “Use of calco oil blue V in bait formulations for marking and controlling subterranean termites” (The United States of America as represented by the …, priority 2005, dated 2009).

Experiments:
[1] = test system: Formosan subterranean termites; assay: In-field marking and control, bait at infested trees, sites 1 and 2; format: in vivo; conditions: 250 ppm bait
Excerpt: (§1) Formosan subterranean termite and native subterranean termite infested trees (Water Oaks and Legastrums) in New Orleans, La. were chosen for this study. Three sites were selected located at the Southern Regional Research Center campus. Site 1 was located near the service building next to an old water oak tree, site 2 was located in the compound area near ligastrum trees, and site 3 near ligastrum trees outside the compound area. Sites 1 and 2 were active with Formosan subterranean termites and site 3 with Eastern subterranean termites.
(§2) The colored bait matrix at 250 ppm was encapsulated as described above and placed directly in the base of the trees where termites were foraging, making sure that the encapsulated colored bait matrix was covered with soil or with a piece of wood or brick on top of it to prevent desiccation. The bait was periodically inspected for consumption and termite activity. The field study started in early August and was completed by the end of the following June. During winter (December-February) termite activity decreased considerably, but by April termite activity and foraging resumed and the blue colored matrix was replaced by bait formulation containing 250 ppm of chitin synthesis inhibitors to kill the colonies. Diflubenzuron was used in 2 of the sites and chlorfluazuron was used in the remaining site.

[2] = test system: Eastern subterranean termites; assay: In-field marking and control, bait at infested trees, site 3; format: in vivo; conditions: Site 3 (Ligastrum), 250 ppm bait
Excerpt: as §1, §2

Compound: O=C(NC(=O)c1c(F)cccc1F)Nc1cc(Cl)c(Oc2ncc(C(F)(F)F)cc2Cl)c(Cl)c1 [Chlorfluazuron, 1-[3,5-dichloro-4-(3-chloro-5-trifluoromethyl-2-pyridyloxy)phenyl]-3-(2,6-difluorobenzoyl)urea, reference compound]
- Bait consumption ([1]; Site 2 (Ligastrum), day 7): 0 g
- Bait consumption ([1]; Site 2 (Ligastrum), day 14): 0 g
- Bait consumption ([1]; Site 2 (Ligastrum), day 21): 0 g
- Bait consumption ([1]; Site 2 (Ligastrum), day 27): 0 g
- Bait consumption ([1]; Site 2 (Ligastrum), day 46): 0 g
- Bait consumption ([1]; Site 2 (Ligastrum), day 56): 0 g
- Bait consumption ([1]; Site 2 (Ligastrum), day 73): 0 g
- Bait consumption ([1]; Site 2 (Ligastrum), day 83): 0 g
- Bait consumption ([1]; Site 2 (Ligastrum), day 102): 0 g
- Bait consumption ([1]; Site 2 (Ligastrum), day 159): 0 g
- Bait consumption ([1]; Site 2 (Ligastrum), day 221): 0 g
- Bait consumption ([1]; Site 2 (Ligastrum), day 251): 450 g
- Bait consumption ([1]; Site 2 (Ligastrum), day 281): 750 g

Compound: O=C(NC(=O)c1c(F)cccc1F)Nc1ccc(Cl)cc1 [Diflubenzuron, 1-(4-chlorophenyl)-3-(2,6-difluorobenzoyl)urea, reference compound]
- Bait consumption ([2]; day 7): 0 g
- Bait consumption ([2]; day 14): 0 g
- Bait consumption ([2]; day 21): 0 g
- Bait consumption ([2]; day 27): 0 g
- Bait consumption ([2]; day 46): 0 g
- Bait consumption ([2]; day 56): 0 g
- Bait consumption ([2]; day 73): 0 g
- Bait consumption ([2]; day 83): 0 g
- Bait consumption ([2]; day 102): 0 g
- Bait consumption ([2]; day 159): 0 g
- Bait consumption ([2]; day 221): 0 g
- Bait consumption ([2]; day 251): 150 g
- Bait consumption ([2]; day 281): 300 g
- Bait consumption ([1]; Site 1 (Water Oak), day 7): 0 g
- Bait consumption ([1]; Site 1 (Water Oak), day 14): 0 g
- Bait consumption ([1]; Site 1 (Water Oak), day 21): 0 g
- Bait consumption ([1]; Site 1 (Water Oak), day 27): 0 g
- Bait consumption ([1]; Site 1 (Water Oak), day 46): 0 g
- Bait consumption ([1]; Site 1 (Water Oak), day 56): 0 g
- Bait consumption ([1]; Site 1 (Water Oak), day 73): 0 g
- Bait consumption ([1]; Site 1 (Water Oak), day 83): 0 g
- Bait consumption ([1]; Site 1 (Water Oak), day 102): 0 g
- Bait consumption ([1]; Site 1 (Water Oak), day 159): 0 g
- Bait consumption ([1]; Site 1 (Water Oak), day 221): 0 g
- Bait consumption ([1]; Site 1 (Water Oak), day 251): 150 g
- Bait consumption ([1]; Site 1 (Water Oak), day 281): 300 g
